Assays:
Format in all cases: cell-based
[1] = system: SW480 colon cancer cells; test: Cell viability assay (CellTiter-Blue); conditions: Homo sapiens, 96 h, four days; for inhibition at 10 µM: given for EC50 >10 μM, read-out: percent inhibition at 10 μM
Procedure: Representative compounds were screened using the following assay procedure to assess the effect on cell viability as described below.
Each compound was dissolved in DMSO as a 10 mM stock and used to prepare compound source plates. Serial dilution (1:3, 8-point dose-response curves from 10 μM to 0.0045 μM) and compound transfer was performed using the ECHO 550 (Labcyte, Sunnyvale, Calif.) into 96-well clear bottom, black-walled plates (Corning-Costar).
Approximately 2×10^3 SW480 colon cancer cells were seeded into each well and allowed to incubate in the presence or absence of compound for four days at 37° C./5% CO2. Eight replicates of DMSO-treated cells served as controls and cells treated with compound were performed in duplicate.
After incubation, 20 μL of CellTiter-Blue (Promega) was added to each well allowed to incubate for approximately 3 hours. This reagent was a buffered solution which contains resazurin, metabolically active cells were able to reduce rezarurin (blue) into resorufin (pink) which was highly fluorescent. This measured fluorescence was used as a readout for cell viability.
After incubation, the plates were read at Ex 560 nm Em 590 nm (Cytation 3, BioTek). Dose-response curves were generated and EC50 concentration values were calculated using non-linear regression curve fit in the GraphPad Prism (San Diego, Calif.) or Dotmatics' Studies Software (Bishops Stortford, UK). For EC50 of >10 μM, the percent inhibition at 10 μM is provided.

[2] = system: IL-6 (THP-1 human monocyte cell line); test: IL-6 inhibition in LPS-stimulated THP-1 cells (HTRF); conditions: LPS 500 ng/mL, 22 hours, IL6 HTRF
Procedure: Human monocyte cell line (THP-1 cells; Catalog # TIB-202, ATCC, Manassas, Va.) were cultured in Roswell Park Memorial Institute (RPMI) 1640 Medium (Catalog #21870-100, Buffalo, N.Y.) with 1% L-glutamine, 1% HEPES, 1% Sodium Pyruvate, 2% Sodium Bicarbonate supplemented with 100 units/mL penicillin, 50 μg/mL streptomycin, 2-mercaptoethanol (0.05 mM) [basal medium] and 10% fetal bovine serum (Catalog #16140089, Life Technologies, Carlsbad, Calif.) at 37° C. and 5% CO2.
THP-1 cells were cultured in basal media with 1% FBS for 24 hours before the start of the assay. Each compound was dissolved in DMSO as a 10 mM stock and used to prepare compound source plates. Serial dilution (1:3, 10-point dose-response curves starting from […]) and compound transfer was performed using the ECHO 550 (Labcyte, Sunnyvale, Calif.) into 384-well white low volume assay plates (Greiner Bio-One) with appropriate DMSO backfill for a final DMSO concentration of 0.1%. THP-1 cells were plated at 5000 cells/well in the 384-well plates and incubated at 37° C. for 2 h. 500 ng/mL of LPS was added after 2 hours and cells were incubated for another 22 hours at 37° C. Plates were spun in a centrifuge for 1 minute at 10,000 rpm and a mixture of anti-IL6 XL665, and anti-IL6 Cryptate diluted in reconstitution buffer (Cisbio Inc.) was added to each well. Following incubation for 3 hrs at room temperature, Homogeneous Time-Resolved Fluorescence (HTRF) was measured using the Envision (Perkin Elmer) at 665 nm and […]. The ratio of fluorescence at 665 nm to 620 nm was used as a readout for IL6 quantification. All samples were processed in duplicate. Readings were normalized to DMSO treated cells and normalized activities were utilized for EC50 calculations using the dose-response log (inhibitor) vs. response—variable slope (four parameters) nonlinear regression feature available in GraphPad Prism 5.0 (or Dotmatics). For EC50 of >10 μM, the percent inhibition at 10 μM is provided.

[3] = system: Wnt activity (Sp5-Luc reporter, SW480 colon carcinoma cells); test: Wnt activity screening assay, Sp5-Luc reporter gene in SW480 cells; conditions: Homo sapiens; for EC50: overnight incubation; for inhibition at 10 µM: given for EC50 >10 μM, read-out: percent inhibition at 10 μM
Text: The screening assay for Wnt activity is described as follows. Reporter cell lines can be generated by stably transducing cancer cell lines (e.g., colon cancer) or primary cells (e.g., IEC-6 intestinal cells) with a lentiviral construct that includes a Wnt-responsive promoter driving expression of the firefly luciferase gene.
SW480 colon carcinoma cells were transduced with a lentiviral vector expressing luciferase with a human Sp5 promoter consisting of a sequence of eight TCF/LEF binding sites. SW480 cells stably expressing the Sp5-Luc reporter gene and a hygromycin resistance gene were selected by treatment with 150 μg/mL of hygromycin for 7 days. These stably transduced SW480 cells were expanded in cell culture and used for all further screening activities. Each compound was dissolved in DMSO as a 10 mM stock and used to prepare compound source plates. Serial dilution (1:3, 10-point dose-response curves starting from 10 μM) and compound transfer was performed using the ECHO 550 (Labcyte, Sunnyvale, Calif.) into 384-well white solid bottom assay plates (Greiner Bio-One) with appropriate DMSO backfill for a final DMSO concentration of 0.1%. For Sp5-Luc reporter gene assays, the cells were plated at 4,000 cells/well in 384-well plates with medium containing 1% fetal bovine serum and incubated overnight at 37° C. and 5% CO2. Following incubation, 20 μl of BrightGlo luminescence reagent (Promega) was added to each well of the 384-well assay plates. The plates were placed on an orbital shaker for 2 min and then luminescence was quantified using the Envision (Perkin Elmer) plate reader. Readings were normalized to DMSO only treated cells, and normalized activities were utilized for EC50 calculations using the dose-response log (inhibitor) vs. response—variable slope (four parameters) nonlinear regression feature available in GraphPad Prism 5.0 (or Dotmatics). For EC50 of >10 μM, the percent inhibition at 10 μM is provided.

[4] = system: primary human fibroblasts derived from IPF patients (LL29 cells); test: Inhibition of fibrotic process, αSMA staining in TGF-β1 treated LL29 fibroblasts; conditions: Fibroblast, 96 h, TGF-β1 20 ng/mL, 4 days; for EC50: % αSMA positive cells
Text: Representative compounds were screened using primary human fibroblasts (derived from IPF patients) treated with TGF-β1 to determine their ability to inhibit the fibrotic process.
Primary human fibroblasts derived from IPF patients (LL29 cells) [^1Xiaoqiu Liu, et. al., “Fibrotic Lung Fibroblasts Show Blunted Inhibition by cAMP Due to Deficient cAMP Response Element-Binding Protein Phosphorylation”, Journal of Pharmacology and Experimental Therapeutics (2005), 315(2), 678-687; ^2Watts, K. L., et. al., “RhoA signaling modulates cyclin D1 expression in human lung fibroblasts; implications for idiopathic pulmonary fibrosis”, Respiratory Research (2006), 7(1), 88] were obtained from American Type Culture Collection (ATCC) and expanded in F12 medium supplemented with 15% Fetal Bovine Serum and Penicillin/Streptomycin.
Each compound was dissolved in DMSO as a 10 mM stock and used to prepare compound source plates. Serial dilution (1:2, 11-point dose-response curves from […] to […]) and compound transfer was performed using the ECHO 550 (Labcyte, Sunnyvale, Calif.) into 384-well clear bottom assay plates (Greiner Bio-One) with appropriate DMSO backfill for a final DMSO concentration of 0.1%. LL29 cells are plated at 1,500 cells/well in 80 μL/well F12 medium supplemented with 1% Fetal Bovine Serum. One hour after addition of the cells, TGF-β1 (Peprotech; 20 ng/mL) was added to the plates to induce fibrosis (ref. 1 and 2 above). Wells treated with TGF-β1 and containing DMSO were used as controls. Cells were incubated at 37° C. and 5% CO2 for 4 days. Following incubation for 4 days, SYTOX green nucleic acid stain (Life Technologies [Thermo Fisher Scientific]) was added to the wells at a final concentration of 1 μM and incubated at room temperature for 30 min. Cells were then fixed using 4% formaldehyde (Electron Microscopy Sciences), washed 3 times with PBS followed by blocking and permeabilization using 3% Bovine Serum Albumin (BSA; Sigma) and 0.3% Triton X-100 (Sigma) in PBS. Cells were then stained with antibody specific to α-smooth muscle actin (αSMA; Abcam) (ref. 1 and 2 above) in 3% Bovine Serum Albumin (BSA; Sigma) and 0.3% Triton X-100 (Sigma) in PBS, and incubated overnight at 4° C. Cells were then washed 3 times with PBS, followed by incubation with Alexa Flor-647 conjugated secondary antibody (Life Technologies [Thermo Fisher Scientific]) and DAPI at room temperature for 1 hour. Cells were then washed 3 times with PBS and plates were sealed for imaging. αSMA staining was imaged by excitation at 630 nm and emission at 665 nm and quantified using the Compartmental Analysis program on the CellInsight CX5 (Thermo Scientific). Dead or apoptotic cells were excluded from analysis based on positive SYTOX green staining. % of total cells positive for αSMA were counted in each well and normalized to the average of 11 wells treated with TGF-β1 on the same plate using Dotmatics' Studies Software. The normalized averages (fold change over untreated) of 3 replicate wells for each compound concentration were used to create dose-responses curves and EC50 values were calculated using non-linear regression curve fit in the Dotmatics' Studies Software. For EC50 of >10 μM, the percent inhibition at 10 μM is provided.

## O=C(Nc1cncc(-c2cnc3[nH]nc(-c4cc5c(N6CCCCC6)ccnc5[nH]4)c3c2)c1)C1CC1 [Compound 188, N-(5-(3-(4-(Piperidin-1-yl)-1H-pyrrolo[2,3-b]pyridin-2-yl)-1H-pyrazolo[3,4-b]pyridin-5-yl)pyridin-3-yl)cyclopropanecarboxamide]
[1]
  EC50: > 10 µM
  inhibition at 10 µM: 40.8%
[2]
  EC50: 0.348 µM
[3]
  EC50: 3.31 µM
[4]
  EC50: 1.79 µM

## c1cc(N2CCCCC2)c2cc(-c3n[nH]c4ncc(C5CCNCC5)cc34)[nH]c2n1 [Compound 601, 3-(4-(Piperidin-1-yl)-1H-pyrrolo[2,3-b]pyridin-2-yl)-5-(piperidin-4-yl)-1H-pyrazolo[3,4-b]pyridine]
[1]
  EC50: 5.38 µM
[2]
  EC50: 3.89 µM
[3]
  inhibition at 10 µM: 36.6%
  EC50: > 10 µM
[4]
  EC50: 9.66 µM

## Fc1cccc(-c2ccnc3[nH]c(-c4n[nH]c5ncc(-c6cncc(CNCc7ccccc7)c6)cc45)cc23)c1 [Compound 24, N-Benzyl-1-(5-(3-(4-(3-fluorophenyl)-1H-pyrrolo[2,3-b]pyridin-2-yl)-1H-pyrazolo[3,4-b]pyridin-5-yl)pyridin-3-yl)methanamine]
[1]
  EC50: 2.45 µM
[2]
  EC50: 4.16 µM
[3]
  inhibition at 10 µM: 25.8%
  EC50: > 10 µM
[4]
  EC50: 1.05 µM

## CC(C)(C)C(=O)Nc1cncc(-c2cnc3[nH]nc(-c4cc5c(-c6ccc(F)cc6)ccnc5[nH]4)c3c2)c1 [Compound 36, N-(5-(3-(4-(4-Fluorophenyl)-1H-pyrrolo[2,3-b]pyridin-2-yl)-1H-pyrazolo [3,4-b]pyridin-5-yl)pyridin-3-yl)pivalamide]
[1]
  EC50: > 10 µM
  inhibition at 10 µM: 11.9%
[3]
  inhibition at 10 µM: 12.7%
  EC50: > 10 µM
[4]
  EC50: > 10 µM
[4]; given for EC50 >10 μM, read-out: percent inhibition at 10 μM
  inhibition at 10 µM: 33.9%
